Assay results: the supplement of paper PMC10307832

Experiments:
Experiment in all cases: relative viability (nuclei count vs DMSO), 5 days (fraction); higher = more cells survive
[1] = compound: CC(C)C[C@@H](C(=O)N[C@H](C(=O)OC1CCCC1)c1ccccc1)[C@H](O)C(=O)NO [Tosedostat] + COc1cccc2cc(-c3nc([C@H]4CC[C@H](C(=O)O)CC4)n4ncnc(N)c34)[nH]c12 [OSI-027] (partner 0.5 µM)
In short: (§1)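 Five library-drug doses in √10 steps were combined with a fixed anchor-drug dose, or a single drug was given alone, by pin tool to lung cancer cell lines in 1536-well plates the day after seeding. Nuclei were stained and counted after 5 days. Relative viability is the nuclei count in treated wells over that in vehicle wells, taken as the median of duplicate plates.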

[2] = compound: CC(C)C[C@@H](C(=O)N[C@H](C(=O)OC1CCCC1)c1ccccc1)[C@H](O)C(=O)NO [Tosedostat] + CS(=O)(=O)N1CCN(Cc2cc3nc(-c4cccc5[nH]ncc45)nc(N4CCOCC4)c3s2)CC1 [Pictilisib] (partner 1 µM)
In short: as §1

[3] = compound: CC(C)C[C@@H](C(=O)N[C@H](C(=O)OC1CCCC1)c1ccccc1)[C@H](O)C(=O)NO [Tosedostat] + C[C@]1(O)C[C@@H](c2nc(-c3ccc4ccc(-c5ccccc5)nc4c3)c3c(N)nccn32)C1 [Linsitinib] (partner 1 µM)
In short: as §1

[4] = compound: CC(C)C[C@@H](C(=O)N[C@H](C(=O)OC1CCCC1)c1ccccc1)[C@H](O)C(=O)NO [Tosedostat] + Cc1cc(Nc2cc(N3CCN(C)CC3)nc(Sc3ccc(NC(=O)C4CC4)cc3)n2)n[nH]1 [Tozasertib] (partner 0.1 µM)
In short: as §1

Cell Line | relative viability ([1]; first compound 0.02 µM) | relative viability ([1]; first compound 0.06325 µM) | relative viability ([1]; first compound 0.2 µM) | relative viability ([1]; first compound 0.6325 µM) | relative viability ([1]; first compound 2 µM) | relative viability ([2]; first compound 0.02 µM) | relative viability ([2]; first compound 0.06325 µM) | relative viability ([2]; first compound 0.2 µM) | relative viability ([2]; first compound 0.6325 µM) | relative viability ([2]; first compound 2 µM) | relative viability ([3]; first compound 0.02 µM) | relative viability ([3]; first compound 0.06325 µM) | relative viability ([3]; first compound 0.2 µM) | relative viability ([3]; first compound 0.6325 µM) | relative viability ([3]; first compound 2 µM) | relative viability ([4]; first compound 0.02 µM) | relative viability ([4]; first compound 0.06325 µM) | relative viability ([4]; first compound 0.2 µM) | relative viability ([4]; first compound 0.6325 µM) | relative viability ([4]; first compound 2 µM)
201T | 0.761 | 0.818 | 0.755 | 0.949 | 0.718 | 0.669 | 0.682 | 0.788 | 0.78 | 0.762 | 0.99 | 1.09 | 1.11 | 1.21 | 1.17 | 0.938 | 1.02 | 1.06 | 1.11 | 0.968
A549 | – | – | – | – | – | 0.606 | 0.513 | 0.495 | 0.469 | 0.521 | 0.663 | 0.621 | 0.562 | 0.532 | 0.608 | – | – | – | – | –
A-427 | 0.437 | 0.548 | 0.534 | 0.484 | 0.406 | 0.736 | 0.643 | 0.727 | 0.662 | 0.564 | 1.14 | 1.12 | 1.03 | 1.07 | 1.09 | 0.217 | 0.196 | 0.185 | 0.162 | 0.152
ABC-1 | 0.588 | 0.546 | 0.423 | 0.391 | 0.406 | 1 | 0.622 | 0.616 | 0.722 | 0.535 | 0.95 | 0.868 | 0.854 | 0.773 | 0.626 | 0.17 | 0.194 | 0.137 | 0.118 | 0.17
BEN | 0.298 | 0.292 | 0.286 | 0.31 | 0.326 | 0.679 | 0.622 | 0.556 | 0.752 | 0.804 | 0.986 | 0.921 | 0.989 | 1.14 | 1.06 | 0.535 | 0.523 | 0.429 | 0.326 | 0.252
CAL-12T | 0.9 | 0.769 | 0.76 | 0.572 | 0.457 | 0.471 | 0.417 | 0.422 | 0.484 | 0.423 | 0.728 | 0.762 | 0.739 | 0.709 | 0.642 | 0.366 | 0.313 | 0.345 | 0.279 | 0.301
COR-L23 | 0.965 | 0.746 | 0.69 | 0.65 | 0.64 | 0.955 | 0.784 | 0.666 | 0.649 | 0.745 | 1.1 | 0.805 | 0.827 | 0.869 | 0.877 | 0.214 | 0.165 | 0.172 | 0.161 | 0.128
COR-L 105 | 0.605 | 0.731 | 0.647 | 0.606 | 0.62 | 0.451 | 0.414 | 0.379 | 0.319 | 0.356 | 0.841 | 0.876 | 0.778 | 0.662 | 0.653 | 0.359 | 0.291 | 0.392 | 0.378 | 0.338
Calu-6 | – | – | – | – | – | 0.975 | 0.87 | 0.778 | 0.757 | 0.651 | 0.979 | 0.942 | 0.907 | 0.848 | 0.647 | – | – | – | – | –
ChaGo-K-1 | 0.54 | 0.525 | 0.577 | 0.617 | 0.498 | 1.1 | 0.813 | 0.754 | 0.812 | 0.638 | – | – | – | – | – | 0.241 | 0.227 | 0.269 | 0.199 | 0.176
EBC-1 | – | – | – | – | – | 0.361 | 0.417 | 0.232 | 0.266 | 0.281 | 0.843 | 0.808 | 0.977 | 0.581 | 0.585 | – | – | – | – | –
EKVX | 0.718 | 0.764 | 0.673 | 0.696 | 0.748 | 0.45 | 0.423 | 0.444 | 0.398 | 0.431 | 0.935 | 1.01 | 1.03 | 0.932 | 1.08 | 0.401 | 0.511 | 0.392 | 0.358 | 0.311
EMC-BAC-2 | 0.4 | 0.405 | 0.412 | 0.416 | 0.319 | 0.614 | 0.544 | 0.504 | 0.544 | 0.526 | 0.822 | 0.792 | 0.794 | 0.837 | 0.82 | 0.281 | 0.27 | 0.265 | 0.242 | 0.187
EPLC-272H | 0.281 | 0.265 | 0.301 | 0.263 | 0.24 | 0.416 | 0.337 | 0.284 | 0.3 | 0.241 | 1.06 | 1.25 | 0.92 | 0.855 | 0.712 | 0.7 | 0.172 | 0.16 | 0.124 | 0.107
H3255 | 0.67 | 0.522 | 0.603 | 0.513 | 0.509 | 0.659 | 0.45 | 0.409 | 0.42 | 0.533 | 0.94 | 0.949 | 0.917 | 0.984 | 0.988 | 0.575 | 0.717 | 0.643 | 0.534 | 0.656
HARA | 0.695 | 0.492 | 0.421 | 0.447 | 0.382 | 0.375 | 0.432 | 0.314 | 0.376 | 0.348 | 0.915 | 0.8 | 0.876 | 0.969 | 0.857 | 0.111 | 0.129 | 0.0782 | 0.0748 | 0.07
HCC-15 | 0.751 | 0.718 | 0.579 | 0.467 | 0.46 | 0.777 | 0.731 | 0.638 | 0.572 | 0.501 | 0.826 | 0.876 | 0.848 | 0.831 | 0.672 | 0.571 | 0.415 | 0.43 | 0.274 | 0.346
HCC-44 | 0.538 | 0.592 | 0.384 | 0.513 | 0.374 | 0.666 | 0.689 | 0.527 | 0.695 | 0.378 | 0.59 | 0.656 | 0.688 | 0.681 | 0.473 | 1.18 | 0.893 | 0.885 | 0.806 | 0.338
